Structures can show the parent of a compound that is named as a salt.
Tested on: mPer2Luc MEF
Assay: PER2::LUC luminescence relative to vehicle control (fold of vehicle); higher = higher PER2::LUC reporter signal
Method: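 Secondary dose-response validation of 72 circadian-modulating compounds in mPer2Luc MEFs, threefold dilution series of six doses from 10 uM down to 0.04 uM. PER2::LUC luminescence read at 24 h and 30 h after treatment, normalised to vehicle (DMSO) control.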

[1] = time after treatment: 24-hour, concentration: 0.04μM
[2] = time after treatment: 24-hour, concentration: 0.37μM
[3] = time after treatment: 24-hour, concentration: 3.33μM
[4] = time after treatment: 24-hour, concentration: 10μM
[5] = time after treatment: 30-hour, concentration: 0.04μM
[6] = time after treatment: 30-hour, concentration: 0.37μM
[7] = time after treatment: 30-hour, concentration: 3.33μM
[8] = time after treatment: 30-hour, concentration: 10μM

## Cc1ccc2nc(NCCN)c3ncc(C)n3c2c1
[1]
  PER2::LUC luminescence: 0.893
[2]
  PER2::LUC luminescence: 0.859
[3]
  PER2::LUC luminescence: 0.768
[4]
  PER2::LUC luminescence: 0.028
[5]
  PER2::LUC luminescence: 0.841
[6]
  PER2::LUC luminescence: 0.784
[7]
  PER2::LUC luminescence: 0.594
[8]
  PER2::LUC luminescence: 0.03

## CC1=C2C[C@H]3[C@@H](CC=C4C[C@@H](O)CC[C@@]43C)[C@@H]2CC[C@]12O[C@@H]1C[C@H](C)CN[C@H]1[C@H]2C [Cyclopamine]
[1]
  PER2::LUC luminescence: 0.834
[2]
  PER2::LUC luminescence: 0.74
[3]
  PER2::LUC luminescence: 0.421
[4]
  PER2::LUC luminescence: 0.178
[5]
  PER2::LUC luminescence: 0.991
[6]
  PER2::LUC luminescence: 0.999
[7]
  PER2::LUC luminescence: 0.766
[8]
  PER2::LUC luminescence: 0.229

## CC[C@@H]1C(=O)N(C)c2cnc(Nc3ccc(C(=O)N[C@H]4CC[C@H](N5CCN(CC6CC6)CC5)CC4)cc3OC)nc2N1C(C)C [BI-6727 (Volasertib)]
[1]
  PER2::LUC luminescence: 0.71
[2]
  PER2::LUC luminescence: 0.565
[3]
  PER2::LUC luminescence: 0.287
[4]
  PER2::LUC luminescence: 0.074
[5]
  PER2::LUC luminescence: 0.679
[6]
  PER2::LUC luminescence: 0.574
[7]
  PER2::LUC luminescence: 0.326
[8]
  PER2::LUC luminescence: 0.08

## O=C(Nc1cccc(Cl)c1)c1ccccn1
[1]
  PER2::LUC luminescence: 1.06
[2]
  PER2::LUC luminescence: 1.28
[3]
  PER2::LUC luminescence: 1.51
[4]
  PER2::LUC luminescence: 1.81
[5]
  PER2::LUC luminescence: 1.06
[6]
  PER2::LUC luminescence: 1.29
[7]
  PER2::LUC luminescence: 1.57
[8]
  PER2::LUC luminescence: 1.92

## O=C(O)c1ccc2c(c1)nc(Nc1cccc(Cl)c1)c1ccncc12 [CX-4945]
[1]
  PER2::LUC luminescence: 1.13
[2]
  PER2::LUC luminescence: 1.06
[3]
  PER2::LUC luminescence: 1.05
[4]
  PER2::LUC luminescence: 0.842
[5]
  PER2::LUC luminescence: 1.11
[6]
  PER2::LUC luminescence: 1.05
[7]
  PER2::LUC luminescence: 1.08
[8]
  PER2::LUC luminescence: 1.06

## CC(C)NC[C@@H](C(=O)N1CCN(c2ncnc3c2[C@H](C)C[C@H]3O)CC1)c1ccc(Cl)cc1 [GDC-0068]
[1]
  PER2::LUC luminescence: 0.898
[2]
  PER2::LUC luminescence: 0.743
[3]
  PER2::LUC luminescence: 0.674
[4]
  PER2::LUC luminescence: 0.481
[5]
  PER2::LUC luminescence: 0.917
[6]
  PER2::LUC luminescence: 0.776
[7]
  PER2::LUC luminescence: 0.619
[8]
  PER2::LUC luminescence: 0.434

## COc1cc(C(=O)N2CCC(N3CCN(C)CC3)CC2)ccc1Nc1ncc2c(n1)N(C)c1ccccc1C(=O)N2C [LRRK2-IN-1]
[1]
  PER2::LUC luminescence: 0.815
[2]
  PER2::LUC luminescence: 0.751
[3]
  PER2::LUC luminescence: 0.337
[4]
  PER2::LUC luminescence: 0.1
[5]
  PER2::LUC luminescence: 0.817
[6]
  PER2::LUC luminescence: 0.716
[7]
  PER2::LUC luminescence: 0.351
[8]
  PER2::LUC luminescence: 0.098

## O=C(c1ccc(OCCN2CCCCC2)cc1)c1c(-c2ccc(O)cc2)sc2cc(O)ccc12 [Raloxifene HCl]
[1]
  PER2::LUC luminescence: 0.941
[2]
  PER2::LUC luminescence: 0.955
[3]
  PER2::LUC luminescence: 0.814
[4]
  PER2::LUC luminescence: 0.287
[5]
  PER2::LUC luminescence: 1
[6]
  PER2::LUC luminescence: 0.996
[7]
  PER2::LUC luminescence: 0.896
[8]
  PER2::LUC luminescence: 0.512

## Cc1nc(Nc2ncc(C(=O)Nc3c(C)cccc3Cl)s2)cc(N2CCN(CCO)CC2)n1 [Dasatinib]
[1]
  PER2::LUC luminescence: 0.438
[2]
  PER2::LUC luminescence: 0.416
[3]
  PER2::LUC luminescence: 0.269
[4]
  PER2::LUC luminescence: 0.074
[5]
  PER2::LUC luminescence: 0.368
[6]
  PER2::LUC luminescence: 0.366
[7]
  PER2::LUC luminescence: 0.244
[8]
  PER2::LUC luminescence: 0.084

## C[C@H](NC(=O)/C(C#N)=C/c1cccc(Br)n1)c1ccccc1 [WP1066]
[1]
  PER2::LUC luminescence: 1.1
[2]
  PER2::LUC luminescence: 1.03
[3]
  PER2::LUC luminescence: 1.14
[4]
  PER2::LUC luminescence: 0.142
[5]
  PER2::LUC luminescence: 1.02
[6]
  PER2::LUC luminescence: 1.02
[7]
  PER2::LUC luminescence: 0.891
[8]
  PER2::LUC luminescence: 0.13

## CCN1CCN(Cc2ccc(NC(=O)Nc3ccc(Oc4cc(NC)ncn4)cc3)cc2C(F)(F)F)CC1 [AST 487]
[1]
  PER2::LUC luminescence: 0.843
[2]
  PER2::LUC luminescence: 0.869
[3]
  PER2::LUC luminescence: 0.792
[4]
  PER2::LUC luminescence: 0.031
[5]
  PER2::LUC luminescence: 0.918
[6]
  PER2::LUC luminescence: 0.891
[7]
  PER2::LUC luminescence: 0.951
[8]
  PER2::LUC luminescence: 0.023

## CN1CCN(C2CCC(n3cc(-c4ccc(Oc5ccccc5)cc4)c4c(N)ncnc43)CC2)CC1 (stereo not given)
[1]
  PER2::LUC luminescence: 0.613
[2]
  PER2::LUC luminescence: 0.502
[3]
  PER2::LUC luminescence: 0.203
[4]
  PER2::LUC luminescence: 0.006
[5]
  PER2::LUC luminescence: 0.566
[6]
  PER2::LUC luminescence: 0.477
[7]
  PER2::LUC luminescence: 0.212
[8]
  PER2::LUC luminescence: 0.003

## COc1cc2c(Oc3ccc4[nH]c(C)cc4c3F)ncnc2cc1OCCCN1CCCC1 [Cediranib]
[1]
  PER2::LUC luminescence: 0.767
[2]
  PER2::LUC luminescence: 0.585
[3]
  PER2::LUC luminescence: 0.35
[4]
  PER2::LUC luminescence: 0.033
[5]
  PER2::LUC luminescence: 0.662
[6]
  PER2::LUC luminescence: 0.496
[7]
  PER2::LUC luminescence: 0.306
[8]
  PER2::LUC luminescence: 0.019

## O=c1c(-c2ccc(O)cc2)coc2cc(O)ccc12 [Daidzein]
[1]
  PER2::LUC luminescence: 1.01
[2]
  PER2::LUC luminescence: 0.97
[3]
  PER2::LUC luminescence: 1.1
[4]
  PER2::LUC luminescence: 1.3
[5]
  PER2::LUC luminescence: 0.995
[6]
  PER2::LUC luminescence: 1.04
[7]
  PER2::LUC luminescence: 1.11
[8]
  PER2::LUC luminescence: 1.59

## O=C(NC1CC1)c1cc(-c2cccs2)on1 [N-cyclopropyl-5-(thiophen-2-yl)-1,2-oxazole-3-carboxamide]
[1]
  PER2::LUC luminescence: 1.3
[2]
  PER2::LUC luminescence: 1.33
[3]
  PER2::LUC luminescence: 1.66
[4]
  PER2::LUC luminescence: 1.76
[5]
  PER2::LUC luminescence: 1.37
[6]
  PER2::LUC luminescence: 1.44
[7]
  PER2::LUC luminescence: 1.79
[8]
  PER2::LUC luminescence: 1.99

## CN1CCN(S(=O)(=O)c2ccc(-c3cnc(N)c(C(=O)Nc4cccnc4)n3)cc2)CC1 [AZD2858]
[1]
  PER2::LUC luminescence: 1.18
[2]
  PER2::LUC luminescence: 1.37
[3]
  PER2::LUC luminescence: 1.01
[4]
  PER2::LUC luminescence: 0.842
[5]
  PER2::LUC luminescence: 0.938
[6]
  PER2::LUC luminescence: 1.16
[7]
  PER2::LUC luminescence: 0.874
[8]
  PER2::LUC luminescence: 0.676

## CCOc1cc(C(=O)N2CCC(N3CCN(C)CC3)CC2)ccc1Nc1ncc2c(n1)N(C1CCCC1)c1ccccc1C(=O)N2C [XMD17-109]
[1]
  PER2::LUC luminescence: 0.79
[2]
  PER2::LUC luminescence: 0.698
[3]
  PER2::LUC luminescence: 0.241
[4]
  PER2::LUC luminescence: 0.049
[5]
  PER2::LUC luminescence: 0.796
[6]
  PER2::LUC luminescence: 0.664
[7]
  PER2::LUC luminescence: 0.285
[8]
  PER2::LUC luminescence: 0.055

## Cc1cccc(/C=N/Nc2cc(N3CCOCC3)n3nc(-c4ccncc4)cc3n2)c1 [APY0201]
[1]
  PER2::LUC luminescence: 0.206
[2]
  PER2::LUC luminescence: 0.187
[3]
  PER2::LUC luminescence: 0.151
[4]
  PER2::LUC luminescence: 0.04
[5]
  PER2::LUC luminescence: 0.16
[6]
  PER2::LUC luminescence: 0.145
[7]
  PER2::LUC luminescence: 0.117
[8]
  PER2::LUC luminescence: 0.038

## CN1CCN(c2ccc3nc(-c4c(N)c5c(F)cccc5[nH]c4=O)[nH]c3c2)CC1 [Dovitinib (TKI-258)]
[1]
  PER2::LUC luminescence: 0.917
[2]
  PER2::LUC luminescence: 0.895
[3]
  PER2::LUC luminescence: 0.651
[4]
  PER2::LUC luminescence: 0.477
[5]
  PER2::LUC luminescence: 0.945
[6]
  PER2::LUC luminescence: 0.895
[7]
  PER2::LUC luminescence: 0.609
[8]
  PER2::LUC luminescence: 0.29

## Cc1ccc(-n2nc(C(C)(C)C)cc2NC(=O)Nc2ccc(OCCN3CCOCC3)c3ccccc23)cc1 [BIRB 796 (Doramapimod)]
[1]
  PER2::LUC luminescence: 0.968
[2]
  PER2::LUC luminescence: 0.966
[3]
  PER2::LUC luminescence: 0.963
[4]
  PER2::LUC luminescence: 1.09
[5]
  PER2::LUC luminescence: 0.892
[6]
  PER2::LUC luminescence: 0.941
[7]
  PER2::LUC luminescence: 0.924
[8]
  PER2::LUC luminescence: 1.26
